# Earlier results in patent publication US11058735B2, “Formulations containing pomegranate seed oil, rosa canina fruit oil and inula viscosa oleoresin or extract” (POMEGA, INC., priority 2014, dated 2021).
# Details: compared with grape seed extract, background statement
smiles,measurement,value
CCCC\C=C/C=C/C=C\CCCCCCCC(=O)O [Punicic acid],antioxidant power relative to grape seed extract,approximately 10 times
